pIC50: −log10 of the molar value.
How the values were obtained:
Assay in all cases: SERPIN inhibition selectivity, similar enzymatic method
Assay type in all cases: biochemical
[1] = target: T1, PAI-3 (Protein C inhibitor/SERPINA5) (Homo sapiens, UniProt P05154); settings: Ser protease: uPA
T1 sequence (P05154 26-406): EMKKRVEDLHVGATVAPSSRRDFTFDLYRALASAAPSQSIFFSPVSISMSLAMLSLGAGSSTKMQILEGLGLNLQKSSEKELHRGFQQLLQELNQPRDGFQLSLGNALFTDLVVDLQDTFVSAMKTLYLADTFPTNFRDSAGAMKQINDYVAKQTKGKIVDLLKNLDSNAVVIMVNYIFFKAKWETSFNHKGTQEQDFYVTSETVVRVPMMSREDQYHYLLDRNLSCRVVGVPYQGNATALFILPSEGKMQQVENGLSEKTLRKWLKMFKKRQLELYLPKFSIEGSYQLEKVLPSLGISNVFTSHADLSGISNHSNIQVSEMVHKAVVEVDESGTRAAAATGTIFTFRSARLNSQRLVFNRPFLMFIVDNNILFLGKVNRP
Experimental: (§1) Inhibitory effect of IMD-4690 on the activity of PAI-1 was measured by the direct tPA assay. Briefly, recombinant tPA and PAI-1 was mixed with IMD-4690, and then tPA substrate with fluorescent pigment (Pyr-Gly-Arg-MCA) was added in this mixture and incubated. The enzymatic activity was calculated by measuring the fluorescence. The inhibitory activity of IMD-4690 on other enzymes was measured with the similar method.

[2] = target: T2, α1-anti-chymotrypsin (SERPINA3) (Homo sapiens, UniProt P01011); settings: Ser protease: Chymotrypsin, Cathepsin G
T2 sequence (P01011 24-423): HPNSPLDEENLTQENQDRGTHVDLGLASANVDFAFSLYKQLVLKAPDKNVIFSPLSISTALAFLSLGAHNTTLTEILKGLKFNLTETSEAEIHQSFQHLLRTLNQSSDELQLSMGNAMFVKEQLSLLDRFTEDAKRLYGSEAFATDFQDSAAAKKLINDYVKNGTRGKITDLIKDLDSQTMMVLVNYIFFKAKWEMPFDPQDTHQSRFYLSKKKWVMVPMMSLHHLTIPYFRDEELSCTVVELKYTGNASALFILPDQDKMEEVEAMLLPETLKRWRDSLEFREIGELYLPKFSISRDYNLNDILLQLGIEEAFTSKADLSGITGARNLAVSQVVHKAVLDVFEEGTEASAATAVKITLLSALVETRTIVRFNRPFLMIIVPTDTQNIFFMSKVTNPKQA
Experimental: as §1

[3] = target: α1-anti-trypsin (SERPINA1) (Homo sapiens, UniProt P01009); settings: Ser protease: Trypsin, Neu-Elastase
α1-anti-trypsin (SERPINA1), sequence (P01009 25-418): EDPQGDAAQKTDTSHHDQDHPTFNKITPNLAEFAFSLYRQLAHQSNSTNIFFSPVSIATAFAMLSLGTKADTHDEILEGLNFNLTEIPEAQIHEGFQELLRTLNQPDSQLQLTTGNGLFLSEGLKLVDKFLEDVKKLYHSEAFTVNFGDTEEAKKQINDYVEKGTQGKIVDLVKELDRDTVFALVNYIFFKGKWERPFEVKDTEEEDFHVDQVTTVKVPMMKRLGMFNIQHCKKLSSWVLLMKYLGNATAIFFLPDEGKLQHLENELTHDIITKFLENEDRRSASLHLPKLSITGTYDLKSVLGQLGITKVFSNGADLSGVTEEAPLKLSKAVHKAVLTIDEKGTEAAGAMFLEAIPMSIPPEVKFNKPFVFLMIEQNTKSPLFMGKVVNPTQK
Experimental: as §1

[4] = target: T3, α1-anti-plasmin (SERPINF2) (Homo sapiens, UniProt P08697); settings: Ser protease: Plasmin
T3 sequence (P08697 40-491): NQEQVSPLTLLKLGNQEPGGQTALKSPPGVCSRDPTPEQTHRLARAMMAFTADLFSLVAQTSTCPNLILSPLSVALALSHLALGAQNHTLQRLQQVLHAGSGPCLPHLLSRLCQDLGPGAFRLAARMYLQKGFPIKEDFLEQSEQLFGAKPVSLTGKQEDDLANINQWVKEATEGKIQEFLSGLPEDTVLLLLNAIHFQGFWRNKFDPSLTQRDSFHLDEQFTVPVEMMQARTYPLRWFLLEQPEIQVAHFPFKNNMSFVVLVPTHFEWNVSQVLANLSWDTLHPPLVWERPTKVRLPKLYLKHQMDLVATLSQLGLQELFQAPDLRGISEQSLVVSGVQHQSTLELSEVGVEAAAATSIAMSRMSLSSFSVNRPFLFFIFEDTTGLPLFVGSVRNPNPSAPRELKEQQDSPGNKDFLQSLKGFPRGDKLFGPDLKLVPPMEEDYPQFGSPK
Experimental: as §1

[5] = target: T4, Heparin Cofactor 2 (HC2/SERPIND1) (Homo sapiens, UniProt P05546); settings: Ser protease: Thrombin
T4 sequence (P05546 20-499): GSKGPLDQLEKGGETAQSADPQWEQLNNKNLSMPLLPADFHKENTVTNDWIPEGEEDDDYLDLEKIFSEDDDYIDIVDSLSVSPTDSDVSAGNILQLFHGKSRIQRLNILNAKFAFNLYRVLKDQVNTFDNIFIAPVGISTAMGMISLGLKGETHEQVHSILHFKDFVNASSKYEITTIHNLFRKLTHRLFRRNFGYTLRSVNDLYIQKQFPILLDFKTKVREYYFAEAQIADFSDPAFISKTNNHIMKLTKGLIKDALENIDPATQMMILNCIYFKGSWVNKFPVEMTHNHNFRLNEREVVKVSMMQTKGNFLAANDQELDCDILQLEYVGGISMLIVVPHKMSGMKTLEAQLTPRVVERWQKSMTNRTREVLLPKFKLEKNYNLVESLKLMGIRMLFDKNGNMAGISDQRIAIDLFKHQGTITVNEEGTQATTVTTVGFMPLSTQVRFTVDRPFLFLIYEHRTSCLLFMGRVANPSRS
Experimental: as §1

[6] = target: PAI-2 (SERPINB2) (Homo sapiens, UniProt P05120); settings: Ser protease: uPA
PAI-2 (SERPINB2), sequence (P05120 whole entry): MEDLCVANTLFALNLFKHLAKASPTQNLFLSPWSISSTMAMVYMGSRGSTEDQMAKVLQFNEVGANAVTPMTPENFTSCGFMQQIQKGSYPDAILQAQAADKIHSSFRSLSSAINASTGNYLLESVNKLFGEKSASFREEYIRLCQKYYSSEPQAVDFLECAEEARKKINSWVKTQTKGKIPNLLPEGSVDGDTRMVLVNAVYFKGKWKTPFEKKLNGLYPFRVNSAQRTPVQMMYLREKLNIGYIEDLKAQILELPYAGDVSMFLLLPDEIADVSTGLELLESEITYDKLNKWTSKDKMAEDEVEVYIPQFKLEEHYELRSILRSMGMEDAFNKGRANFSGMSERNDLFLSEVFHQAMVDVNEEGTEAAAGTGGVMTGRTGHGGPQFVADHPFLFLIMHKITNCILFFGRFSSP
Experimental: as §1

[7] = target: Anti-thrombin (AT3/SERPINC1) (Homo sapiens, UniProt P01008); settings: Ser protease: Thrombin, factor Xa
Anti-thrombin (AT3/SERPINC1), sequence (P01008 33-464): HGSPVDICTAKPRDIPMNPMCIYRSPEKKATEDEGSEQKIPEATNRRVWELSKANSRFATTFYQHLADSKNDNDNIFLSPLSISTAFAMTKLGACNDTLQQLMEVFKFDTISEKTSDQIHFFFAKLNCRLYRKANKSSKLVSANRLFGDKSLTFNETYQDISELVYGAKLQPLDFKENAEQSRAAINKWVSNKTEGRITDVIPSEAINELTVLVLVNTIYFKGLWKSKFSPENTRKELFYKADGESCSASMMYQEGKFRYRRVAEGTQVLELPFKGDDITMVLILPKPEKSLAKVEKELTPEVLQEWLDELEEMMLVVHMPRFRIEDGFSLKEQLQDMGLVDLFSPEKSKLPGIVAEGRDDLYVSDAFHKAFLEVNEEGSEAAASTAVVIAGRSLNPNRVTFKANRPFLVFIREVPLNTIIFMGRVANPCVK
Experimental: as §1

Measured: pIC50

CC(C)(C)c1ccc(Oc2cc(-c3ccc(OC(F)(F)F)cc3)ccc2OCC(=O)O)cc1 [IMD-4690, 2-[[3-(4-tert-Butylphenoxy)-4'-(trifluoromethoxy) [1,1'-biphenyl]-4-yl]oxy] acetic acid]
< 4.60: all assays above

From paper PMC4364779, “IMD-4690, a Novel Specific Inhibitor for Plasminogen Activator Inhibitor-1, Reduces Allergic Airway Remodeling in a Mouse Model of Chronic Asthma via Regulating Angiogenesis and Remodeling-Related Mediators” (PLoS ONE, 2015)
